Experimental data reported in patent publication US5268003A (priority 1992, dated 1993).

Experiments:
[1] = Bleaching of ink stained cotton in Terg-o-tometer, change in B-axis of Hunter color scale; conditions: pH 9, 40° C., 10 ppm A.O., P-Surf base (1.5 g/l), 15 minutes; corrected for detergent control
Experimental: (§1) The bleaching performance of the peracids was evaluated against common stains such as tea (BC-1) and ink. Typically the cotton test pieces (3"×4") were stained with the appropriate stain and washed in a Terg-o-tometer for 15 minutes at 40° C. in a 500 mL aqueous wash solution. Dosage of the peracid was 10 ppm active oxygen.
Ink stain bleaching was measured as ΔB where the quantity ΔB is the change in the B-axis of the Hunter color scale. The ink stain is initially blue and loses color with bleaching thereby increasing the value of ΔB. Recorded ΔΔB values are ΔB values corrected for the cleaning accomplished by the detergent control.
(§2) Bleaching Results at 40° C., 10 ppm A.O., P-Surf base (1.5 g

[2] = Bleaching of tea (BC-1) stained cotton in Terg-o-tometer, reflectance change; conditions: 10 ppm A.O.; for BC-1 ΔΔR pH 8: pH 8, 40° C.; for BC-1 ΔΔR pH 8 / BC-1 ΔΔR pH 9 / BC-1 ΔΔR pH 10: P-Surf base (1.5 g/l), 15 minutes, average of duplicates; for BC-1 ΔΔR pH 9: pH 9, 40° C.; for BC-1 ΔΔR pH 10: pH 10, 40° C.
Experimental: as §1
Stain bleaching was measured reflectometrically using a Colorgard System/05 Reflectometer. Bleaching was indicated by an increase in reflectance, reported as ΔΔR. In general a ΔΔR of one unit is perceivable in a paired comparison while ΔΔR of two units is perceivable monadically. In reporting the reflectance change, the change in reflectance caused by general detergency has been accounted for. Thus ΔΔR can actually be expressed as:
ΔΔR=ΔR peracid+detergent-ΔR detergent
where ΔR is the reflectance difference of the stained fabric after and before washing.
BC-1 experiments were run in duplicate and the value shown is an average. In order to ensure that the solids were as finely dispersed as possible, one of the BC-1 experiments of each pair was usually conducted by predissolving the peracid in 1 ml of DMF; if this value was within 1 unit of the experiment using finely ground peracid, the values were averaged.
as §2

[3] = heavy-duty liquid detergent, pH 4.5

Compound	INK ΔΔB pH 9 [1]	BC-1 ΔΔR pH 8 [2]	BC-1 ΔΔR pH 9 [2]	BC-1 ΔΔR pH 10 [2]	t1/2 at 40° C. [3]	BC-1 ΔΔR pH 8 (DMF value in parenthesis) ([2]; pH 8, peracid predissolved in 1 ml of DMF, 40° C., P-Surf base)	BC-1 ΔΔR pH 9 (DMF value in parenthesis) ([2]; pH 9, peracid predissolved in 1 ml of DMF, 40° C., P-Surf base)
O=C(N[C@H]1CC[C@H](NC(=O)c2ccc(C(=O)OO)cc2)CC1)c1ccc(C(=O)OO)cc1 [PCBHEX, N,N'-Di(4-percarboxybenzoyl)-1,4-diaminocyclohexane]	4.2	0.9	2.1	3.1			
O=C(CCCCCN1C(=O)c2ccccc2C1=O)OO [PAP, N-phthaloylamino peroxycaproic acid, reference compound]					3 days		
O=C(CCCCC(=O)OO)Nc1ccc(NC(=O)CCCCC(=O)OO)cc1 [DPAPD, N,N'-Di(percarboxyadipoyl)phenylenediamine]	8.0	7.1	6.7	4.0	32 days		
O=C(Nc1ccc(C(=O)OO)cc1)c1ccc(C(=O)Nc2ccc(C(=O)OO)cc2)cc1 [DPCAT, N,N'-Di(4-Percarboxyaniline)terephthalate]	3.1	1.6	1.5	2.3	65 days		
O=C(CCC(=O)Nc1ccc(C(=O)OO)cc1)Nc1ccc(C(=O)OO)cc1 [SDPCA, N,N'-Succinoyl-di(4-percarboxy)aniline]	16.8	2.7	3.3	5.0	43 days		
O=C(NCCCCNC(=O)c1ccc(C(=O)OO)cc1)c1ccc(C(=O)OO)cc1 [PCBBD, N,N'-Di(4-percarboxybenzoyl)-1,4-butanediamine]	28.9	9.5	9.4	6.0	15 days		
O=C(OO)c1ccc(C(=O)N2CCN(C(=O)c3ccc(C(=O)OO)cc3)CC2)cc1 [PCBPIP, N,N'-Di(4-percarboxybenzoyl)piperazine]	9.7	3.0	2.9	3.1	79 days		
O=C(Nc1ccccc1NC(=O)c1ccc(C(=O)OO)cc1)c1ccc(C(=O)OO)cc1 [1,2-PCBPD, N,N'-Di(4-percarboxybenzoyl)-1,2-phenylenediamine]	24.9	4.4	4.1	3.9	33 days	8.1	6.5
O=C(NCCNC(=O)c1ccc(C(=O)OO)cc1)c1ccc(C(=O)OO)cc1 [PCBED, N,N'-Di(4-Percarboxybenzoyl)ethylenediamine]	19.1	10.6	9.0	5.9			
